Laboratory results taken from patent publication US20120101099A1, “HISTONE DEACETYLASE INHIBITORS” (ANTHEM BIOSCIENCES PRIVATE LIMITED, priority 2009, published 2012).
Structures can show the parent of a compound that is named as a salt. Where two headings read alike, the source gives them in different places.

How the values were obtained:
NCI-H460 = assay: Cell proliferation assay (MTT); assay type: cell-based; conditions: Homo sapiens
Procedure, shortened: (§1)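 MTT was added for 3 h, formazan dissolved in DMSO and A570 read. GI50 interpolated from dose-response curves of percentage growth relative to a T0 plate.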

PA-1 = assay: Cell proliferation assay (MTT); assay type: cell-based; conditions: Homo sapiens
Procedure, shortened: as §1

[1] = system: human HDAC (Hela cells nuclear extract); assay: HDAC activity screening, Hela nuclear extract, Boc-Lys(Ac)-AMC substrate; assay type: biochemical; conditions: for HDAC % Inhibition (1 μM): 1 μM compound; for HDAC % Inhibition (10 μM): 10 μM compound
Method: To study the human HDAC inhibition the in-house 96 well plate assay have been established using fluorescent substrate (Boc-Lys (Ac)-AMC Substrate). Hela cells nuclear extract have been used as enzyme source.
Assay was performed in 96-well black microplate and total volume of the assay was 100 μL. Hela nuclear extract was diluted HDAC assay buffer (final concentration of 3.0 μg/mL). Enzyme mixture was made of 10 μL of diluted enzyme and 30 μL of HDAC buffer. 40 μl of enzyme mixture followed by 10 μL of test compound (final concentration from 0.01 to 10 μM) or vehicle (control) was added to each well. The plate was pre-incubated at 37° C. for 10 minutes. The HDAC reaction was started by adding 50 μl of HDAC substrate Boc-Lys (Ac)-AMC (Anaspec, Inc Fremont, Calif., USA). The plate was incubated at 37° C. for 45 minutes. The reaction was stopped by adding 50 μL of Trypsin stop solution and plate further incubated at 37° C. for 15 minutes. Measuring the fluorescence at excitation wavelength of 360 nm and emission wavelength of 460 nm monitored the release of AMC. Buffer alone and substrate alone served as blank.

CYP 3A4 = target: T1, CYP 3A4 (Homo sapiens, UniProt P08684); assay: Cytochrome-P450 isoforms liability determination; assay type: in vitro ADME; conditions: fluorescence based kit
T1 construct: purchased
T1 sequence (P08684 whole entry, canonical isoform): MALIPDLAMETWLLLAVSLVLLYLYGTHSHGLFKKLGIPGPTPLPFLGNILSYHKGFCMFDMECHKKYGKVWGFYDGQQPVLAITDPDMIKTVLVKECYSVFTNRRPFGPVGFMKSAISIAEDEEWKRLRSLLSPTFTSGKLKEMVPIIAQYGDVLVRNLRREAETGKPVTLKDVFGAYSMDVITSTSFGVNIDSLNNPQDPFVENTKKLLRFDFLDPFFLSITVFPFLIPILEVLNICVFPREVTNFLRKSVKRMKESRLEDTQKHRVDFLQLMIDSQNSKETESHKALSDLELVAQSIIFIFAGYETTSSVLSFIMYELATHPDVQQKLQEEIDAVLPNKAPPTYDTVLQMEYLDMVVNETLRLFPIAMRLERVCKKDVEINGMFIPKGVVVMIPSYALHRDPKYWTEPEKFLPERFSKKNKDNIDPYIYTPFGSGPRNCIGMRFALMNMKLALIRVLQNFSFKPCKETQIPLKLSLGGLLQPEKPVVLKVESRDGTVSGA
Method: To determine the test compound liability towards Human cytochrome 450 (hCYP450) Isoforms fluorescence based screening kits.
Brief procedure: 2× test compounds were prepared by dilution with deionized water. A serial dilution of the test compound was done. 2× solution of known inhibitor were used as a positive control. 40 μL of the 2× solution that is prepared was added to the desired wells. Two replicates were included for every compound. 50 μL of the Master premix (premix of CYP450 Baclosomes, reagents and regenerating system) was dispensed into each well. The plate was incubated for 20 min at room temperature to allow the compounds to interact with the CYP450enzymes. The reaction was started by adding 10 μL of the substrate and NADP^+ mixture. The plate was incubated for the desired amount of time, and then 10 μL of stop reagent was added to each well to quench the reaction. The fluorescence was measured in the fluorescent plate reader at excitation and emission wavelengths as recommended, depending on the substrate used.

786-O = assay: Anti-proliferative activity (GI50); assay type: cell-based; conditions: Homo sapiens, 786-0; Table 9; Renal
Method: (§2) Cells were seeded in a 96-well cell culture plates at a concentration of 10,000 cells per well and incubated at 37° C. in CO2 incubator.
(§3) Twenty-four hours later cells were treated with different concentrations (100, 10, 1, 0.1, and 0.01 μM) of compound dissolved in DMSO and incubated for 48 hours. For To measurement, 24 hours after seeding the cells, 20 μL of 3-(4.5-dimethyl-2- thiazolyl)-2,5-diphenyl-2H-tetrazolium (MTT) solution per well was added to the T0 plate and incubated for 3 hours at 37° C. in a CO2 incubator.
(§4) The plate containing cells and test compounds was treated similarly after 48 hours of incubation. After 3 hours of MTT addition, well contents were aspirated carefully followed by addition of 100 μL DMSO per well. Plates were agitated to ensure dissolution of the formazan crystals in DMSO and absorbance was read at 570 nm (A570). […] From the percentage growths a dose response curve was generated and GI50 values were interpolated from the growth curves.

Hela-229 = assay: Anti-proliferative activity (GI50); assay type: cell-based; conditions: Homo sapiens, Table 9, Cervix
Method: as §2, §3, §4

NCI-H23 = assay: Anti-proliferative activity (GI50); assay type: cell-based; conditions: Homo sapiens, Table 9, Lung
Method: as §2, §3, §4

SK-OV-3 = assay: Anti-proliferative activity (GI50); assay type: cell-based; conditions: Homo sapiens, Table 9, Ovary
Method: as §2, §3, §4

P21 = assay: p21 induction in HeLa cells (Western Blot); assay type: cell-based; design: key: represented by the symbol ‘+’ which indicates the relative extent of modulation; ++: represented by the symbol ‘+’ which indicates the relative extent of modulation; +++: represented by the symbol ‘+’ which indicates the relative extent of modulation; ++++: represented by the symbol ‘+’ which indicates the relative extent of modulation; conditions: 24 hrs, 0.03-3.0 μM
Method: HeLa Cells were seeded at a density of 0.5×10^6 Cells/well into 6 well plates and incubated for 24 hrs. Compounds were tested at 5 different concentrations (0.03, 0.1, 0.3, 1.0, 3.0 μM) including corresponding controls. After 24 hrs cells were lysed and the cellular extract was used for measuring P21 induction by Western Blot using monoclonal Anti-p21 clone CP74 antibody (Sigma).

HL-60 (AML) cells = assay: Differentiation assay; assay type: cell-based; conditions: Homo sapiens, 72 h; HL-60 cells, 3 days, H2 DCF-DA oxidation
Method: HL-60 (AML) cells were seeded (5×10^4 cells/well) into a 96 well plate and after 24 hrs cells were treated for 3 days with compounds in 8 different concentration (3000, 1000, 300, 100, 30, 10, 3, 1 nM) including control and 60 μM of H2 DCF-DA probe added to the cells. After 2 hours incubation oxidation of H2 DCF-DA was measured.

[2] = Table 9, Lung, read-out: Anti-proliferative activity (GI50) NCI-H460
[3] = Table 1, MTT, 48 hours, read-out: Cell growth inhibition (GI50 in μM) PA-1
[4] = Table 9, Ovary, read-out: Anti-proliferative activity (GI50) PA-1
[5] = read-out: IC50 (50% HDAC inhibitory concentration), Table 2, Hela nuclear extract
[6] = Table 1, MTT, 48 hours, read-out: Cell growth inhibition (GI50 in μM) NCI H460

| SMILES | GI50 (NCI-H460; [2]) | GI50 (PA-1; [3]) | GI50 (PA-1; [4]) | HDAC % Inhibition (1 μM) ([1]; Hela nuclear extract) | HDAC % Inhibition (10 μM) ([1]; Hela nuclear extract) | IC50 [1, 5] | IC50 (CYP 3A4) | GI50 (786-O) | GI50 (Hela-229) | GI50 (NCI-H23) | GI50 (SK-OV-3) | P21 induction (P21) | GI50 (NCI-H460; [6]) | EC50 (HL-60 (AML) cells) | IC50 ([1]; Table 8, read-out: IC50 (nM) Hela nuclear extract) |
| --- | --- | --- | --- | --- | --- | --- | --- | --- | --- | --- | --- | --- | --- | --- | --- |
| O=C(NO)c1ccc(Cn2cc(-c3ccc(CN4CCOCC4)cc3)nn2)cc1 [Example 9, N-Hydroxy-4-[4-(4-morpholin-4-ylmethyl-phenyl)-[1,2,3]triazol-1-ylmethyl]-benzamide] | 2.4 ± 0.85 µM | 0.22 ± 0.03 µM | 0.2 ± 0.037 µM | 91% | 99% | 57 nM | 43.2 µM | 2500 ± 1010 nM | 1400 ± 260 nM | 2300 ± 1140 nM | 1800 ± 200 nM | + | – | – | – |
| O=C(/C=C/c1ccc(Cn2cc(-c3ccc(CN4CCCC4)cc3)nn2)cc1)NO [Example 16, N-Hydroxy-3-{4-[4-(4-pyrrolidin-1-ylmethyl-phenyl)-[1,2,3]triazol-1-ylmethyl]-phenyl}-acrylamide] | 0.3 ± 0.04 µM | 0.09 ± 0.04 µM | 0.08 ± 0.04 µM | 99% | 100% | 4 nM | 53.3 µM | 2650 ± 80 nM | 1000 ± 270 nM | 520 ± 40 nM | 40 ± 16 nM | + | 0.4 µM | 2880 nM | – |
| O=C(CCCCCCC(=O)Nc1ccccc1)NO [SAHA, Suberoylanilide Hydroxamic Acid, reference compound] | – | – | – | – | – | – | – | – | – | – | – | +++ | – | – | – |
| CN(C)Cc1ccc(-c2cn(Cc3ccc(/C=C/C(=O)NO)cc3)nn2)cc1 [Example 21] | 1.9 ± 0.74 µM | 0.11 ± 0.04 µM | 0.1 ± 0.01 µM | 98% | 100% | 8 nM | 28.5 µM | 2000 ± 1100 nM | 700 ± 470 nM | 500 ± 240 nM | 1700 ± 160 nM | – | – | – | – |
| O=C(/C=C/c1cccc(Cn2cc(-c3ccc(CN4CCOCC4)cc3)nn2)c1)NO [Example 25, N-Hydroxy-3-{3-[4-(4-morpholin-4-ylmethyl-phenyl)-[1,2,3]triazol-1-ylmethyl]-phenyl}-acrylamide hydrochloride] | 0.45 ± 0.28 µM | 0.04 ± 0.01 µM | 0.04 ± 0.01 µM | 100% | 101% | 1 nM | 12.6 µM | 1500 ± 700 nM | 600 ± 380 nM | 400 ± 90 nM | 500 ± 1200 nM | ++ | 0.8 µM | 3830 nM | – |
| O=C(NO)c1ccc(Cn2cc(-c3ccc(CN4CCCC4)cc3)nn2)cc1 [Example 8, N-Hydroxy-4-[4-(4-pyrrolidin-1-ylmethyl-phenyl)-[1,2,3]triazol-1-ylmethyl]-benzamide] | 1.9 ± 0.75 µM | 0.15 ± 0.05 µM | 0.1 ± 0.01 µM | 95% | 100% | 3 nM | 28.3 µM | 4100 ± 1400 nM | 1100 ± 230 nM | 900 ± 250 nM | 1600 ± 100 nM | + | 2.1 µM | 8240 nM | 3 nM |
